The record followed here is PMC5325331, “A steroid like phytochemical Antcin M is an anti-aging reagent that eliminates hyperglycemia-accelerated premature senescence in dermal fibroblasts by direct activation of Nrf2 and SIRT-1” (Oncotarget, 2016).

Molecules are shown by their SMILES.

For series [1], the system named is C. elegans wild type Bristol N2. Kind of series: Life span assay in C. elegans. The note with it: ANM 10 μM or RES 438 μM alone, compared to the control. The series is classed as in vivo, Caenorhabditis elegans. The protocol: The wild type Bristol N2 strain was used in this study. C. elegans and Escherichia coli OP50 strain were obtained from the Caenorhabditis Genetic Center, University of Minnesota (Minneapolis-St. Paul, MN). Worms were maintained at 20°C on nematode growth medium (NGM). Hatched worms (L1-stage larvae) were transferred to fresh agar plates and cultured with E. coli OP50 as a food source until they reached the L4 larvae stage. Synchronization of worm cultures was achieved by hypochlorite treatment of gravid hermaphrodites. […] Control worms were treated with 0.1% DMSO. All worms were kept 20°C to develop adulthood. Surviving and dead animals were counted daily (starting from the first day of adulthood) until all worms had died. […] Worms suffering from internal hatch (a defect in egg-laying) and those that crawled off the NGM plate were not included in the life-span assay. During the reproductive period, adult worms were transferred to fresh NGM plates every and then every other day thereafter. Life span assay result was obtained from three independent assays.

A further series concerns HUVECs. Kind of series: Cell viability of HUVECs (MTT assay). The series is classed as cell-based, human. As to conditions: ANM 10 μM or RES 5 μM for 48 h. As to the method: Human normal dermal fibroblasts ([…]) and human umbilical vein endothelial cells (HUVECs) were obtained from the Bioresource Collection and Research Center (BCRC), Hsinchu, Taiwan. […] Likewise, HUVECs were grown in M-199 medium supplemented with ECGS, heparin, 10% FBS and 100 U/mL penicillin and streptomycin at 37°C in a fully humidified atmosphere of 5% CO2. High-glucose treatment was performed by treating cells with 15 or 30 mM D-glucose (HG) for 24-72 h. […] Cell viability was assessed by MTT colorimetric assay. […] After treatment with HG (15 and 30 mM) in the presence or absence of samples for 24-72 h, culture media was withdrawn and incubated with MTT (1 mg/mL) in fresh medium for 2 h. The MTT formazan crystals were dissolved in 400 μL of DMSO and the samples were measured at 570 nm […] using an ELISA microplate reader (Bio-Tek Instruments, Winooski, VT). The percentage of cell viability (%) was calculated as (A570 of treated cells/A570 of untreated cells) × 100.
Background: Tetrazolium dyes change colour on reduction, which living cells bring about.

Turning to `Oc1ccc(/C=C/c2cc(O)cc(O)c2)cc1` [RES, resveratrol, reference compound], the “life span of C. elegans under normal condition” value in series [1] was “highly comparable”. Besides, the “cell viability of HUVECs, treatment alone” value with HUVECs is “did not affect cell viability”.
